Literature values in US9302977B2, “Method of making monomethyl fumarate” (XenoPort, Inc., priority 2013, dated 2016).
Where a name gives a salt, the structure may show the parent alone.

Columns and labels:
[1] = tested on: TNF-induced NF-κB signaling
[2] = as an impurity

| aqueous solubility | TNF-induced DNA binding of NF-κB proteins [1] | Compound | TNF-induced nuclear entry of activated NF-κB proteins [1] | TNF-induced tissue factor mRNA and protein expression [1] | genotoxicity [2] |
| --- | --- | --- | --- | --- | --- |
| poor | inhibits | COC(=O)/C=C/C(=O)OC [DMF, dimethyl fumarate] | inhibits | inhibits |  |
|  |  | COS(=O)(=O)OC [Dimethyl sulfate] |  |  | genotoxic |
